Measurements: US20140243302A1, “BRIDGED BICYCLIC COMPOUNDS FOR THE TREATMENT OF BACTERIAL INFECTIONS” (priority 2011, published 2014)
Converted amounts (≈) assume the structure as drawn.

System: Staphylococcus aureus Smith
Assay: MIC assay, modified agar dilution (CLSI), S. aureus Smith
Format: cell-based
Settings: Staphylococcus aureus, agar dilution, 35° C., 16-20 hr; lowest concentration that completely inhibited growth; read-out: S_aureus_Smith_WT_MIC
Procedure, shortened: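 Agar dilution per CLSI on Mueller Hinton agar (plus 5% horse blood for S. pneumoniae and E. faecium), compound 128 to 0.001 μg/mL in two-fold steps. Spots of ~1×10^4 CFU incubated at 35 °C for 16-20 hr before MIC scoring.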

Structure (SMILES) | MIC [µg/mL]
COCCOc1ccc2ncc(F)c(CCC34CCC(NCc5ccc6c(n5)NC(=O)CO6)(CC3)CO4)c2n1 [Example 33, 6-((1-(2-(3-Fluoro-6-(2-methoxyethoxy)-1,5-naphthyridin-4-yl)ethyl)-2-oxabicyclo[2.2.2]octan-4-ylamino)methyl)-2H-pyrido[3,2-b][1,4]oxazin-3(4H)-one] | 0.063 (≈ 0.117 µM)
Cl.O=C1COc2ccc(CNC34CCC(CCc5c(F)cnc6ccc(OCCO)nc56)(CC3)OC4)nc2N1 [Example 34, 6-((1-(2-(3-Fluoro-6-(2-hydroxyethoxy)-1,5-naphthyridin-4-yl)ethyl)-2-oxabicyclo[2.2.2]octan-4-ylamino)methyl)-2H-pyrido[3,2-b][1,4]oxazin-3(4H)-one Hydrochloride] | 0.031
Cl.O=C1COc2ccc(CNC34CCC(CCc5c(F)cnc6ccc(OCCCO)nc56)(CC3)OC4)nc2N1 [Example 35, 6-((1-(2-(3-Fluoro-6-(3-hydroxypropoxy)-1,5-naphthyridin-4-yl)ethyl)-2-oxabicyclo[2.2.2]octan-4-ylamino)methyl)-2H-pyrido[3,2-b][1,4]oxazin-3(4H)-one Hydrochloride] | 0.016
O=C1COc2ccc(CNC34CCC(CCc5c(F)cnc6ccc(OCCCCO)nc56)(CC3)OC4)nc2N1 [Example 36, 6-((1-(2-(3-Fluoro-6-(4-hydroxybutoxy)-1,5-naphthyridin-4-yl)ethyl)-2-oxabicyclo[2.2.2]octan-4-ylamino)methyl)-2H-pyrido[3,2-b][1,4]oxazin-3(4H)-one] | 0.031 (≈ 0.0562 µM)
O=C1COc2ccc(CNC34CCC(CCc5c(F)cnc6ccc(OCCCCCO)nc56)(CC3)OC4)nc2N1 [Example 37, 6-((1-(2-(3-Fluoro-6-(5-hydroxypentyloxy)-1,5-naphthyridin-4-yl)ethyl)-2-oxabicyclo[2.2.2]octan-4-ylamino)methyl)-2H-pyrido[3,2-b][1,4]oxazin-3(4H)-one] | 0.063 (≈ 0.111 µM)
NCCCOc1ccc2ncc(F)c(CCC34CCC(NCc5ccc6c(n5)NC(=O)CO6)(CC3)CO4)c2n1 [Example 38, 6-((1-(2-(6-(3-Aminopropoxy)-3-fluoro-1,5-naphthyridin-4-yl)ethyl)-2-oxabicyclo[2.2.2]octan-4-ylamino)methyl)-2H-pyrido[3,2-b][1,4]oxazin-3(4H)-one] | 0.25 (≈ 0.466 µM)
NCCCCOc1ccc2ncc(F)c(CCC34CCC(NCc5ccc6c(n5)NC(=O)CO6)(CC3)CO4)c2n1 [Example 39, 6-((1-(2-(6-(4-Aminobutoxy)-3-fluoro-1,5-naphthyridin-4-yl)ethyl)-2-oxabicyclo[2.2.2]octan-4-ylamino)methyl)-2H-pyrido[3,2-b][1,4]oxazin-3(4H)-one] | 0.5 (≈ 0.908 µM)
NCCOc1ccc2ncc(F)c(CCC34CCC(NCc5ccc6c(n5)NC(=O)CO6)(CC3)CO4)c2n1 [Example 40, 6-((1-(2-(6-(2-Aminoethoxy)-3-fluoro-1,5-naphthyridin-4-yl)ethyl)-2-oxabicyclo[2.2.2]octan-4-ylamino)methyl)-2H-pyrido[3,2-b][1,4]oxazin-3(4H)-one] | 0.25 (≈ 0.478 µM)
NCCCCCOc1ccc2ncc(F)c(CCC34CCC(NCc5ccc6c(n5)NC(=O)CO6)(CC3)CO4)c2n1 [Example 41, 6-((1-(2-(6-(5-Aminopentyloxy)-3-fluoro-1,5-naphthyridin-4-yl)ethyl)-2-oxabicyclo[2.2.2]octan-4-ylamino)methyl)-2H-pyrido[3,2-b][1,4]oxazin-3(4H)-one] | 0.5 (≈ 0.885 µM)
O=C1COc2ccc(CNC34CCC(CCc5c(F)cnc6ccc(OCC7(CO)CC7)nc56)(CC3)OC4)nc2N1 [Example 42, 6-((1-(2-(3-Fluoro-6-((1-(hydroxymethyl)cyclopropyl)methoxy)-1,5-naphthyridin-4-yl)ethyl)-2-oxabicyclo[2.2.2]octan-4-ylamino)methyl)-2H-pyrido[3,2-b][1,4]oxazin-3(4H)-one] | 0.063 (≈ 0.112 µM)
